Results taken from ChEMBL document CHEMBL1909046, “DrugMatrix in vitro pharmacology data”.

Key:
[1] = target: T1, Angiotensin-converting enzyme (Oryctolagus cuniculus, UniProt P12822); experiment: biochemical; format: tissue-based, Lung;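 note: enzymatic inhibition of angiotensin-converting enzyme measured with FAPGG as the substrate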
T1 sequence (P12822 whole entry): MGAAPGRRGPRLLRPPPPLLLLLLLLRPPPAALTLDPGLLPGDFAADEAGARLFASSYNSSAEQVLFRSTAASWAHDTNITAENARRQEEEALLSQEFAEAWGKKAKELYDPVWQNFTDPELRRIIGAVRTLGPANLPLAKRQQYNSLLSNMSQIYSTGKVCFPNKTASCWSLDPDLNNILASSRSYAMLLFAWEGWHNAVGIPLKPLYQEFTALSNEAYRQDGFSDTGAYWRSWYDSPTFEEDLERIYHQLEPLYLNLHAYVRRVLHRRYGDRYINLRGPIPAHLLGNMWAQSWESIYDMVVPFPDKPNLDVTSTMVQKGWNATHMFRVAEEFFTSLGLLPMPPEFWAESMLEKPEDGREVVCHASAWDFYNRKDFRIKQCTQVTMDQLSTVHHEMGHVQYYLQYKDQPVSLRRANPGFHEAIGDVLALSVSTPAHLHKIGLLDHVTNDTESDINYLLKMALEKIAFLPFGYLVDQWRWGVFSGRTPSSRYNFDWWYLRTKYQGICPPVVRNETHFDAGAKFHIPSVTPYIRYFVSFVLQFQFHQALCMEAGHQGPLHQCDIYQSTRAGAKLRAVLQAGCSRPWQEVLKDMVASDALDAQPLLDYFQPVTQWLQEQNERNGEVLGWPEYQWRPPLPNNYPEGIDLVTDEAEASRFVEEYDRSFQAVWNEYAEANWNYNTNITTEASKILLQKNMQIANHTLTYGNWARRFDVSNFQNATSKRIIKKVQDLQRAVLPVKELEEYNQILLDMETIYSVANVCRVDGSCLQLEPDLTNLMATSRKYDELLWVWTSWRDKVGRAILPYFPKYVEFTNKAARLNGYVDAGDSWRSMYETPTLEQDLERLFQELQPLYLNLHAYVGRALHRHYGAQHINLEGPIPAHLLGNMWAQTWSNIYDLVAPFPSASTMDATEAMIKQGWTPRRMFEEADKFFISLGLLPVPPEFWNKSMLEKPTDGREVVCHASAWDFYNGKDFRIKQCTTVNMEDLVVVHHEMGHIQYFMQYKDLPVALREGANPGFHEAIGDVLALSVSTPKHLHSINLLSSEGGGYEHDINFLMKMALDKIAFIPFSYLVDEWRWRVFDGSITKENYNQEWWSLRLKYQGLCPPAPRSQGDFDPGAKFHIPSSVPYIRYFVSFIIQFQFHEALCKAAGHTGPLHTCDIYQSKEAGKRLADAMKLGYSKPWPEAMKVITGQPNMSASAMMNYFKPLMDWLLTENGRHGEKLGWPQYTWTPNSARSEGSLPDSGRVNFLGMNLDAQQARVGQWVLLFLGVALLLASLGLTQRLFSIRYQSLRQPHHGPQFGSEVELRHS

[2] = target: T2, Receptor-type tyrosine-protein phosphatase C (Homo sapiens, UniProt P08575); set-up: species or system Escherichia coli;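 note: inhibition of CD45 enzyme activity measured using DiFMUP as substrate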
T2 sequence (P08575 whole entry): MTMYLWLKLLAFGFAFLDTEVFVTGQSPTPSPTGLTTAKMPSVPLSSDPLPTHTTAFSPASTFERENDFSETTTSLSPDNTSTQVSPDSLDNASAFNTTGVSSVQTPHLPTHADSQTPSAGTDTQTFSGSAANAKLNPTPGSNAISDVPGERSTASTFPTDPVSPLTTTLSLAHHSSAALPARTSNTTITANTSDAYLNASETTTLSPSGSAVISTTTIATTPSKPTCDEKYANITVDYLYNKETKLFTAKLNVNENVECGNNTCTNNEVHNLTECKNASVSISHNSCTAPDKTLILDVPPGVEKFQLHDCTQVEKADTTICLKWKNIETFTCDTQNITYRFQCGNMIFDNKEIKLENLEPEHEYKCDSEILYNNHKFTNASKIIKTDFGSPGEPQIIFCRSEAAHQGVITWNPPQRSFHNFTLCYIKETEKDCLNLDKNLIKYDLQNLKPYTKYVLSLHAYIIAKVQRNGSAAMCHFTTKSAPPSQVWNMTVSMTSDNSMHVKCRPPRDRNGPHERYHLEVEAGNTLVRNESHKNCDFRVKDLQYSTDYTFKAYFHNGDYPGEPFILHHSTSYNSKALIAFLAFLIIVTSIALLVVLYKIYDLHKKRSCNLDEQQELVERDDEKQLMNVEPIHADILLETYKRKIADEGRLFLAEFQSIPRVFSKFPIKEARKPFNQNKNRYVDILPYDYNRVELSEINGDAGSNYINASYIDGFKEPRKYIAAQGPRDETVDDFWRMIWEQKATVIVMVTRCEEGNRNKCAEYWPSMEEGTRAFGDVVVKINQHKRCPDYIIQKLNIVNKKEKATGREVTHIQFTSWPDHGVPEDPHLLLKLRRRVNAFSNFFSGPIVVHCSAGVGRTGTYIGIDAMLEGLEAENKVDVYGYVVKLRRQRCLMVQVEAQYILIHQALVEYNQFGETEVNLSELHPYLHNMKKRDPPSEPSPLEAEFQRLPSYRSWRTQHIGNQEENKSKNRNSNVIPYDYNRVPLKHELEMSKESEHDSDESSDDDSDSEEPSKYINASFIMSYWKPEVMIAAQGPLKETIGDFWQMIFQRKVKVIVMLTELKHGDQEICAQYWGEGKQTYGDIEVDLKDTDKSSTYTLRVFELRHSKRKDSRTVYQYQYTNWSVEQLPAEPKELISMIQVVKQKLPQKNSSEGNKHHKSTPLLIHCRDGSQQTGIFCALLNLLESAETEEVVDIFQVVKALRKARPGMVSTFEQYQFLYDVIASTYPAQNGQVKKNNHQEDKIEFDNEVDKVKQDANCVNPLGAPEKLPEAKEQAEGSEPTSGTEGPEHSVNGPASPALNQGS

[3] = target: Voltage-gated inwardly rectifying potassium channel KCNH2 (Homo sapiens, UniProt Q12809); conditions: hek293
[4] = target: Histamine H2 receptor (Homo sapiens, UniProt P25021); format: cell membranes, CHO-K1, Membrane
[5] = target: Receptor tyrosine-protein kinase erbB-2 (Homo sapiens, UniProt P04626); experiment: biochemical; format: cell-based, Insect cells; conditions: insect cells;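 note: inhibition of HER2 kinase enzyme activity, measured with Poly(Glu:Tyr) as the phosphorylation substrate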
[6] = target: T3, Cathepsin G (Homo sapiens, UniProt P08311); format: tissue-based; conditions: neutrophil;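 note: inhibition of Cathepsin G enzyme activity, tested on an AMC-conjugated peptide substrate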
T3 sequence (P08311 whole entry): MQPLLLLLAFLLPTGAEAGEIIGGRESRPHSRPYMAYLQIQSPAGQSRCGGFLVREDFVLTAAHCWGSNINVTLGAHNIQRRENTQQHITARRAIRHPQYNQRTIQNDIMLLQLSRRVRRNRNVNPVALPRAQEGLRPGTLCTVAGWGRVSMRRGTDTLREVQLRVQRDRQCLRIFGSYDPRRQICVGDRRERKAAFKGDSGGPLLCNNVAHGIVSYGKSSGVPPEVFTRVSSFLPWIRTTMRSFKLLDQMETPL
Note: in other assays of this panel Not Active means under 50% inhibition at 10 µM.

Sequence of Voltage-gated inwardly rectifying potassium channel KCNH2 (Q12809 whole entry): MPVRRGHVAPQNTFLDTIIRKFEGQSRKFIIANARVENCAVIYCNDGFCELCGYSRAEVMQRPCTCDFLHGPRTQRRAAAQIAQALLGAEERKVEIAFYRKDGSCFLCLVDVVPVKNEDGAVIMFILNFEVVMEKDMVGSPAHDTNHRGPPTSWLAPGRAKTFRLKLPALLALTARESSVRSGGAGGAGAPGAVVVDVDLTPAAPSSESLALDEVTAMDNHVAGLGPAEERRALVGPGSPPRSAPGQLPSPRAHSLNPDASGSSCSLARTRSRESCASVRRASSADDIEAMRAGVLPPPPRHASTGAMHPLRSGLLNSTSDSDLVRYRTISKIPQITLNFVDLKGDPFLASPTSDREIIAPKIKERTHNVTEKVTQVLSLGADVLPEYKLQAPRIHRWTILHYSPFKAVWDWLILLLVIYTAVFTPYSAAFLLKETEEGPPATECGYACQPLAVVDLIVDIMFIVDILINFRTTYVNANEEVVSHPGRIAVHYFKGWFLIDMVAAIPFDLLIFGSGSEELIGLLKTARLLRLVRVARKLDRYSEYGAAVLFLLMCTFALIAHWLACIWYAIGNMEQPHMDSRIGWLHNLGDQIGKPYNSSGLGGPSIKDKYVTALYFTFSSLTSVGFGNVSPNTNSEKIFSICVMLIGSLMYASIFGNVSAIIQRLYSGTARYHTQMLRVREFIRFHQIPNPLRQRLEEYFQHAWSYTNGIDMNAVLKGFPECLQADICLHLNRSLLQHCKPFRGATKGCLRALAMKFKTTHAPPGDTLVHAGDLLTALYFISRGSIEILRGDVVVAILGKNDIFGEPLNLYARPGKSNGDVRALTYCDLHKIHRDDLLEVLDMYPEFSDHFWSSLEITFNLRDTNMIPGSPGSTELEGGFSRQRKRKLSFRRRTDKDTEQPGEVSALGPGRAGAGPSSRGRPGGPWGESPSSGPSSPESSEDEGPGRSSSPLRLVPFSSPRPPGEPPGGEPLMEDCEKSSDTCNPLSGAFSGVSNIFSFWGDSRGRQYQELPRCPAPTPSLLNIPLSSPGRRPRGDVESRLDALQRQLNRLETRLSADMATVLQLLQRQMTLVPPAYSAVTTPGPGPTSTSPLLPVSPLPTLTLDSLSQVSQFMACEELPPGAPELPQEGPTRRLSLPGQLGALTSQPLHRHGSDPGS
Sequence of Receptor tyrosine-protein kinase erbB-2 (P04626 whole entry): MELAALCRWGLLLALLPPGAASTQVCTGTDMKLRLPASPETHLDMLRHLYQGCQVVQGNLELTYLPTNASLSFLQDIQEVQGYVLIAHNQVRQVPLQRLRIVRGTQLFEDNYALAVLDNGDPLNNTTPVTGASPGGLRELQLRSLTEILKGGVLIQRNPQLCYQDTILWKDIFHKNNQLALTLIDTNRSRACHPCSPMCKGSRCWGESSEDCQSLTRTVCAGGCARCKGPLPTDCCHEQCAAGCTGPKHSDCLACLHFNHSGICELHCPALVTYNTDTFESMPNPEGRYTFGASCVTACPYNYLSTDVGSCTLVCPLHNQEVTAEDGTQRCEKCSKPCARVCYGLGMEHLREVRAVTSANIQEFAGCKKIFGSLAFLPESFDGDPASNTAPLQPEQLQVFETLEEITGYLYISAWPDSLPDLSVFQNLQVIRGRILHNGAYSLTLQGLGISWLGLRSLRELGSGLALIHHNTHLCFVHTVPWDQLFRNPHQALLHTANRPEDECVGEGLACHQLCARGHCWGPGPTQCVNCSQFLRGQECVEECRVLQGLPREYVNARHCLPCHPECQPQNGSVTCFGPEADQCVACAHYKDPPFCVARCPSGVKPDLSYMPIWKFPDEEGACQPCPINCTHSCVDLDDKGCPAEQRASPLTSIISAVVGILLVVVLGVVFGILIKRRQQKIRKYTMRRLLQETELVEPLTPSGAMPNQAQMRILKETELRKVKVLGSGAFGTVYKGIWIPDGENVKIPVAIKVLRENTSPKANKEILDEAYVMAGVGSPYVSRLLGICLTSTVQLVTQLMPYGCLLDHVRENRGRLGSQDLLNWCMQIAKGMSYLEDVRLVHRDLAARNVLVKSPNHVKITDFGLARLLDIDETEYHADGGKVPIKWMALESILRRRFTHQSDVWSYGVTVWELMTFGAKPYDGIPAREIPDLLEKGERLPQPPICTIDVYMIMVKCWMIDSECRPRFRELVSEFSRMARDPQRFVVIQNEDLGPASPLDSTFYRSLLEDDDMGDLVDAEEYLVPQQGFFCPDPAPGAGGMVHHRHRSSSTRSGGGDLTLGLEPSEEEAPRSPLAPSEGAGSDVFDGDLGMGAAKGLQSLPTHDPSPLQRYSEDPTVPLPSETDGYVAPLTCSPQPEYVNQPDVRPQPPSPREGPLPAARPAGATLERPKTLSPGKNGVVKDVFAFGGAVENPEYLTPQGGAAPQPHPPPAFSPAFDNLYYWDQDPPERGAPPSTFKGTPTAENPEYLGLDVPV
Sequence of Histamine H2 receptor (P25021 whole entry): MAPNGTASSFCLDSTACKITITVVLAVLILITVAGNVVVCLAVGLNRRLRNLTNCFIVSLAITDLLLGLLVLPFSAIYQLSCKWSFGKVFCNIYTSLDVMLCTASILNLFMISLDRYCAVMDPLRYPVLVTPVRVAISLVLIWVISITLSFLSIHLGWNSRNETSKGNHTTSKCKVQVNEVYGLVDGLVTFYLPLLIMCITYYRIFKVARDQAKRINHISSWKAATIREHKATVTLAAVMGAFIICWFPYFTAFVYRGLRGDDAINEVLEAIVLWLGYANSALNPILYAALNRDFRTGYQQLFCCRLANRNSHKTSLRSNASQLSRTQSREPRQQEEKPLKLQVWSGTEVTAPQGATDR

| Structure (SMILES) | IC50 [1] | IC50 [2] | IC50 [3] | Ki [3] | IC50 ([4]; cho-k1) | IC50 [5] | IC50 [6] | IC50 ([4]; read-out: IC50) [nM] | Ki ([4]; read-out: Ki) [nM] |
| --- | --- | --- | --- | --- | --- | --- | --- | --- | --- |
| O=c1[nH]cc(F)c(=O)[nH]1 [FLUOROURACIL] | Not Active | Not Active | Not Active | Not Active | Not Active | Not Active | Not Active |  |  |
| CC(C)n1c(/C=C/C(O)CC(O)CC(=O)O)c(-c2ccc(F)cc2)c2ccccc21 (stereo not given) [FLUVASTATIN] | Not Active | Not Active | Not Active | Not Active | Not Active | Not Active | Not Active |  |  |
| NCC1(CC(=O)O)CCCCC1 [GABAPENTIN] | Not Active | Not Active | Not Active | Not Active | Not Active | Not Active | Not Active |  |  |
| CC[N+](CC)(CC)CCOc1cccc(OCC[N+](CC)(CC)CC)c1OCC[N+](CC)(CC)CC.[I-].[I-].[I-] [GALLAMINE TRIETHIODIDE] | Not Active | Not Active | Not Active | Not Active | Not Active | Not Active | Not Active |  |  |
| Nc1nc2c(ncn2COC(CO)CO)c(=O)[nH]1 [GANCICLOVIR] | Not Active | Not Active | Not Active | Not Active | Not Active | Not Active | Not Active |  |  |
| COc1c(N2CCNC(C)C2)c(F)cc2c(=O)c(C(=O)O)cn(C3CC3)c12 (stereo not given) [GATIFLOXACIN] | Not Active | Not Active | Not Active | Not Active | Not Active | Not Active | Not Active |  |  |
| NCC(=O)O [GLYCINE] | Not Active | Not Active | Not Active | Not Active | Not Active | Not Active | Not Active |  |  |
| CC1(C)[C@@H](O[C@H]2O[C@H](C(=O)O)[C@@H](O)[C@H](O)[C@H]2O[C@@H]2O[C@H](C(=O)O)[C@@H](O)[C@H](O)[C@H]2O)CC[C@]2(C)[C@H]3C(=O)C=C4[C@@H]5C[C@@](C)(C(=O)O)CC[C@]5(C)CC[C@@]4(C)[C@]3(C)CC[C@@H]12 [GLYCYRRHIZIN] | Not Active | Not Active | Not Active | Not Active | Not Active | Not Active | Not Active |  |  |
| COC1=CC(=O)C[C@@H](C)[C@]12Oc1c(Cl)c(OC)cc(OC)c1C2=O [GRISEOFULVIN] | Not Active | Not Active | Not Active | Not Active | Not Active | Not Active | Not Active |  |  |
| C/C=C1\[C@H]2C=C(C)C[C@]1(N)c1ccc(=O)[nH]c1C2 [HUPERZINE A] | Not Active | Not Active | Not Active | Not Active | Not Active | Not Active | Not Active |  |  |
| NS(=O)(=O)c1cc2c(cc1Cl)NCNS2(=O)=O [HYDROCHLOROTHIAZIDE] | Not Active | Not Active | Not Active | Not Active | Not Active | Not Active | Not Active |  |  |
| O=P1(NCCCl)OCCCN1CCCl (stereo not given) [IFOSFAMIDE] | Not Active | Not Active | Not Active | Not Active | Not Active | Not Active | Not Active |  |  |
| CN1CCC[C@H]1c1cccnc1 [NICOTINE] | Not Active | Not Active | Not Active | Not Active | Not Active | Not Active | Not Active |  |  |
| O=C1CN=C(c2ccccc2)c2cc([N+](=O)[O-])ccc2N1 [NITRAZEPAM] | Not Active | Not Active | Not Active | Not Active | Not Active | Not Active | Not Active |  |  |
| CNCCC=C1c2ccccc2CCc2ccccc21 [NORTRIPTYLINE] | Not Active | Not Active | Not Active | Not Active |  | Not Active | Not Active | 2330 | 2300 |
| CC1COc2c(N3CCN(C)CC3)c(F)cc3c(=O)c(C(=O)O)cn1c23 (stereo not given) [OFLOXACIN] | Not Active | Not Active | Not Active | Not Active | Not Active | Not Active | Not Active |  |  |
| Oc1cccc2cccnc12 [OXYQUINOLINE] | Not Active | Not Active | Not Active | Not Active | Not Active | Not Active | Not Active |  |  |
